Experimental data reported in US20200148635A1 (priority 2017, published 2020).

Experiments:
[1] = system: Fusarium culmorum; assay: In vitro test Fusarium culmorum (foot rot of cereals), radial growth on Potato Dextrose Agar; assay type: cell-based; details: 300 ppm, agar plate, 25° C., seven days
Procedure: Fusarium culmorum (Foot Rot of Cereals):
(§1) Compounds were dissolved in 0.3% DMSO and then added to Potato Dextrose Agar medium just prior to dispensing it into petri dishes. 5 mL medium with compound in the desired concentration was dispensed into 60 mm sterile Petri-plates. After solidification each plate was seeded with 5 mm size mycelial disc taken form periphery of actively growing virulent culture plate. Plates were incubated in growth chambers at 25° C. temperature and 60% relative humidity for seven days and radial growth was measured.

[2] = system: Bortytis cinera; assay: Greenhouse Bortytis cinera test in tomato, preventive; assay type: in vivo; details: Solanum lycopersicum, preventive spray on tomato plants, inoculated one day after treatment with Bortytis cinera, read-out: control compared to the untreated check
Procedure: Bortytis cinera Test in Tomato
Compounds were dissolved in 2% DMSO/Acetone and then mixed with water to calibrated spray volume of 50 mL. This 50 mL spray solution was poured into the spray bottles for further applications.
(§2) To test the preventive activity of compounds, healthy young tomato plants raised in the greenhouse were sprayed with active compound preparation at the stated application rates inside the spray cabinets using hallowcone nozzles. One day after treatment, the plants were inoculated with spore suspension (2% Malt) containing 1.2×10^6 Bortytis cinera inoculum. The inoculated plants were then kept in greenhouse chamber at 18-20° C. temperature and 90-100% relative humidity for disease expression.
(§3) A visual assessment of compound's performance was carried by rating the disease severity (0-100% scale) on treated plants on 3, 7, 10 and 15 days after application. Efficacy (% control) of the compounds was calculated by comparing the disease rating in the treatment with untreated control. The sprayed plants were also assessed for compound's phytotoxic effects by recording symptoms like necrosis, chlorosis and stunting.

[3] = system: Rhizoctonia solani; assay: In vitro test Rhizoctonia solani (rice sheath blight/potato black scurf), radial growth on Potato Dextrose Agar; assay type: cell-based; details: 168 h, agar plate, 25° C., seven days, read-out: control compared to the untreated check
Procedure: Rhizoctonia solani (Rice Sheath Blight/Potato Black Scurf):
as §1, with “Petri” for “petri”

[4] = system: Alternaria solani; assay: In vitro test Alternaria solani (early blight of tomato/potato), radial growth on Potato Dextrose Agar; assay type: cell-based; details: 168 h, agar plate, 25° C., seven days, read-out: control compared to the untreated check
Procedure: as §1, with “Alternaria solani (early blight of tomato/potato): Compounds” for “Compounds”, “Petri” for “petri”

[5] = system: Phakopsora pachyrhizi; assay: Greenhouse Phakopsora pachyrhizi test in soybean, preventive; assay type: in vivo; details: preventive spray on soybean plants, inoculated one day after treatment with Phakopsora pachyrhizi, read-out: control compared to the untreated check
Procedure: Phakopsora pachyrhizi Test in Soybean
Compounds were dissolved in 2% DMSO/Acetone and then mixed with water to the calibrated spray volume of 50 mL and poured into the spray bottles for further applications.
as §2, with “soybean” for “tomato”, “suspension” for “suspension (2% Malt)”, “2.1×10^6 Phakopsora pachyrhizi” for “1.2×10^6 Bortytis cinera”, “25°” for “18-20°”, “90%” for “90-100%”
as §3, with “carried out” for “carried”, “with the one of the” for “with”, “plant compatibility” for “phytotoxic effects”

[6] = system: Pyricularia oryzae; assay: microbe, parasite or virus in culture; assay type: cell-based; details: 168 h, read-out: control compared to the untreated check
[7] = system: Septoria lycopersici; assay: In vitro test Septoria lycopersici (leaf spot of tomato), radial growth on Potato Dextrose Agar; assay type: cell-based; details: 168 h, agar plate, 25° C., seven days, read-out: control compared to the untreated check
Procedure: Septoria lycopersici (Leaf Spot of Tomato):
as §1, with “Petri” for “petri”, “70%” for “60%”

| Structure (SMILES) | control compared to the untreated check [1] [%] | pest or weed control at 500 ppm [2] [%] | inhibition of growth at 300 ppm [3] [%] | inhibition of growth at 300 ppm [4] [%] | pest or weed control at 500 ppm [5] [%] | inhibition of growth at 300 ppm [6] [%] | inhibition of growth at 300 ppm [7] [%] |
| --- | --- | --- | --- | --- | --- | --- | --- |
| CCN(C)C=Nc1cc(C)c(N=S(C)(=O)c2ccccc2)cc1C (centres unmarked) [Compound 4] | 70 |  |  |  |  |  |  |
| CCN(C)C=Nc1cc(C)c(Oc2cccc(S(=O)(=NC(=O)C(F)(F)F)C(C)C)c2)cc1Cl (centres unmarked) [Compound 10] | 70 |  |  |  |  |  |  |
| CCN(C)C=Nc1cc(C)c(Oc2cccc(S(C)(=O)=NCc3ccccc3)c2)cc1Cl (centres unmarked) [Compound 21] |  | > 70 | > 70 | > 70 | > 70 |  |  |
| CCN=S(=O)(CCC(C)C)c1cccc(Oc2cc(Cl)c(N=CN(C)CC)cc2C)c1 (centres unmarked) [Compound 25] | 70 |  |  | > 70 |  | > 70 |  |
| CCN(C)C=Nc1cc(C)c(S(=O)(CC)=NC(=O)c2cccc(OC)c2)cc1Cl (centres unmarked) [Compound 50] |  | > 70 | > 70 | > 70 | > 70 |  |  |
| CCN(C)C=Nc1cc(C)c(N=S(C)(=O)c2cccc(OC)c2)cc1C (centres unmarked) [Compound 74] |  | > 70 |  |  | > 70 | > 70 |  |
| CCN(C)C=Nc1cc(C)c(N=S(=O)(CCC(C)C)c2cccc(OC)c2)cc1C (centres unmarked) [Compound 76] |  | > 70 |  |  | > 70 | > 70 |  |
| CCN(C)C=Nc1cc(Br)c(N=S(=O)(CCC(C)C)c2cccc(OC)c2)nc1C (centres unmarked) [Compound 77] |  | > 70 |  |  | > 70 |  |  |
| CCN(C)C=Nc1cc(C)c(S(=O)(CC(C)C)=Nc2cc(C(F)(F)F)cc(C(F)(F)F)c2)cc1Cl (centres unmarked) [Compound 85] |  | > 70 |  |  | > 70 |  |  |
| CCN(C)C=Nc1cc(C)c(S(=O)(CC(C)C)=Nc2ccccc2)cc1Cl (centres unmarked) [Compound 86] |  | > 70 |  |  | > 70 | > 70 |  |
| CCN(C)C=Nc1cc(Br)c(N=S(C)(=O)c2cccc(OC)c2)nc1C (centres unmarked) [Compound 87] |  | > 70 |  |  |  |  |  |
| CCN(C)C=Nc1cc(C)c(S(C)(=O)=NCc2cccc(Cl)c2)cc1Cl (centres unmarked) [Compound 90] |  |  | > 70 | > 70 | > 70 |  | > 70 |
| CCN(C)C=Nc1cc(C)c(S(C)(=O)=NCc2cccc(OC(F)(F)F)c2)cc1Cl (centres unmarked) [Compound 92] |  |  | > 70 | > 70 |  |  | > 70 |
| CCN(C)C=Nc1cc(C)c(Oc2cccc(S(C)(=O)=NCC(F)(F)F)c2)cc1C (centres unmarked) [Compound 96] |  | > 70 | > 70 | > 70 |  |  | > 70 |
| CCN(C)C=Nc1cc(C)c(Oc2cccc(S(C)(=O)=Nc3ccccc3)c2)cc1C (centres unmarked) [Compound 98] |  | > 70 |  |  |  |  |  |
| CCN(C)C=Nc1cc(C)c(S(=O)(CC(C)C)=Nc2ccc(N3CCOCC3)cc2)cc1Cl (centres unmarked) [Compound 113] |  |  | > 70 | > 70 |  |  | > 70 |
| CCN(C)C=Nc1cc(C)c(S(=O)(CC(C)C)=Nc2ccsc2)cc1Cl (centres unmarked) [Compound 114] |  |  | > 70 | > 70 | > 70 |  | > 70 |
| CCN(C)C=Nc1cc(C)c(S(=O)(CC(C)C)=Nc2ccc(OC)c(OC)c2)cc1Cl (centres unmarked) [Compound 124] |  |  | > 70 | > 70 |  |  | > 70 |
| CCN(C)C=Nc1cc(C)c(Oc2ccc(S(C)(=O)=NCC3CC3)cc2)cc1Cl (centres unmarked) [Compound 127] |  | > 70 |  | > 70 |  | > 70 |  |
| CCN(C)C=Nc1cc(C)c(Cc2ccc(S(C)(=N)=O)cc2)cc1C (centres unmarked) [Compound 128] |  | > 70 |  | > 70 |  | > 70 |  |
| CCN(C)C=Nc1cc(C)c(Oc2ccc(S(C)(=O)=NC(F)(F)F)cc2)cc1Cl (centres unmarked) [Compound 134] |  |  | > 70 | > 70 |  |  | > 70 |
| CCN=S(C)(=O)c1cccc(Nc2cc(C)c(N=CN(C)CC)cc2C)c1 (centres unmarked) [Compound 140] | 70 |  | > 70 | > 70 |  |  | > 70 |
| CCN(C)C=Nc1cc(C)c(Oc2cccc(S(=O)(=NCC3CC3)C(F)(F)F)c2)cc1Cl (centres unmarked) [Compound 144] | 70 |  |  |  |  |  |  |
| CCN(C)C=Nc1cc(C)c(Oc2ccccc2S(=N)(=O)C(F)(F)F)cc1Cl (centres unmarked) [Compound 147] | 70 |  |  |  |  |  |  |
| CCN=S(=O)(c1ccccc1Oc1cc(Cl)c(N=CN(C)CC)cc1C)C(F)(F)F (centres unmarked) [Compound 150] | 70 |  | > 70 | > 70 | > 70 |  |  |
